Assay results published in EP2488529B1, “Spirocyclic derivatives as histone deacetylase inhibitors” (DAC S.r.l., priority 2009, dated 2011).
Like-named read-outs stand apart in the source and are kept apart here.

Key:
HDAC = assay: Assay of enzyme inhibition of HDAC (BIOMOL kit, fluorescence); type: biochemical; conditions: nuclear fraction of Hela cells; substrate 200 µM; 15 min at RT
Description: The in-vitro activity of HDAC inhibitors was assayed using a BIOMOL Kit, according to the instructions from the manufacturer (Biomolecular Research Laborator). 15 µl of 30 x diluted nuclear fraction of Hela cells, was diluted to 50 µl with the assay buffer containing the HDAC inhibitor and the substrate (lysine with acetylated amino group on the side chain) at a concentration of 200 µM. The samples were incubated for 15 min at RT and then exposed to a developer (10 min at RT). In this last step a fluorophore was produced, whose fluorescence was measured using an excitation wavelength of 355 nm and an emission at 460 nm. The IC50 was calculated using GraphPad Software.

HCT-116 = assay: Cell growth, CellTiter-Glo Luminescent Cell Viability Assay (antiproliferative assay); type: cell-based; conditions: HCT-116 cells, incubated for 72 h, read-out: HCT116 IC50
Description: (§1) CellTiter-Glo® Luminescent Cell Viability Assay (Promega) is a homogeneous method of determining the number of viable cells in culture based on quantitation of the present ATP, which indicates the presence of metabolically active cells. The homogeneous assay procedure involves addition of a single reagent (CellTiter-Glo® Reagent) directly to the cells, which leads to cell lysis and generation of a luminescent signal proportional to the amount of the ATP and the number of cells present in culture. The assay relies on the properties of a proprietary thermostable luciferase (Ultra-Glo® recombinant luciferase), which generates a luminescent signal. K562, A549, and HCT-116 cells, in exponential growth, were incubated for 72 h with different concentrations of the inhibitors. After 72 h, a volume of CellTiter-Glo® Reagent equal to the volume of cell culture medium was added. The content was mixed for 2 min to induce cell lysis. The luminescence was recorded after further 10 min at RT in order to obtain a stable luminescent signal.
(§2) The IC50 was calculated using GraphPad Software.

A549 = assay: as above; type: cell-based; conditions: A549 cells, incubated for 72 h
Description: as §1, §2

K562 = assay: as above; type: cell-based; conditions: K562 cells, incubated for 72 h
Description: as §1, §2

IC50 (HDAC) [nM]	IC50 (HCT-116; Homo sapiens) [nM]	IC50 (A549; Homo sapiens) [nM]	IC50 (K562; Homo sapiens) [nM]	IC50 (HCT-116) [nM]	IC50 (A549) [nM]	IC50 (K562) [nM]	Compound
100 to 1000	≤ 1000	1000 to 3000	≤ 1000	–	–	–	Cc1cc(/C=C/C(=O)NO)cc2c1OC1(CCN(Cc3ccccc3)CC1)CC2=O [Example 52, (E)-3-(1'-Benzyl-8-methyl-4-oxospiro[chroman-2,4'-piperidine]-6-yl)-N-hydroxy-acrylamide]
100 to 1000	≤ 1000	≤ 1000	≤ 1000	–	–	–	CN1CCCC2(CC(=O)c3cc(/C=C/C(=O)NO)ccc3O2)C1 (racemic) [Example 14, (±)-(E)-3-[1'-Methyl-4-oxo-spiro(chromane-2,3'-piperidine)-6-yl]-N-hydroxy-acrylamide]
100 to 1000	≤ 1000	≤ 1000	≤ 1000	–	–	–	O=C(/C=C/c1ccc2c(c1)C(=O)CC1(CCCNC1)O2)NO (racemic) [Example 12, (±)-(E)-3-[4-Oxo-spiro(chromane-2,3'-piperidine)-6-yl]-N-hydroxy-acrylamide]
100 to 1000	≤ 1000	1000 to 3000	≤ 1000	–	–	–	CCOC(=O)N1CCCC2(CC(=O)c3cc(/C=C/C(=O)NO)ccc3O2)C1 (racemic) [Example 15, (±)-(E)-3-[1'-Ethyloxycarbonyl-4-oxo-spiro(chromane-2,3'-piperidine)-6-yl]-N-hydroxy-acrylamide]
100 to 1000	1000 to 3000	≥ 3000	1000 to 3000	–	–	–	CCOC(=O)N1CC2(CC(=O)c3cc(/C=C/C(=O)NO)ccc3O2)C1 [Example 38, (E)-3-[1'-Ethyloxycarbonyl-4-oxo-spiro(chromane-2,3'-azetidine)-6-yl]-N-hydroxy-acrylamide]
100 to 1000	1000 to 3000	1000 to 3000	≥ 3000	–	–	–	O=C(/C=C/c1ccc2c(c1)C(=O)CC1(CCNC1)O2)NO (racemic) [Example 1, (±)-(E)-3-[4-Oxo-spiro(chromane-2,3'-pyrrolidine)-6-yl]-N-hydroxy-acrylamide]
100 to 1000	≤ 1000	≤ 1000	≤ 1000	–	–	–	CCOC(=O)N1CCC2(CC(=O)c3cc(/C=C/C(=O)NO)ccc3O2)C1 (racemic) [Example 8, (±)-(E)-3-[1'-Ethyloxycarbonyl-4-oxo-spiro(chromane-2,3'-pyrrolidine)-6-yl]-N-hydroxy-acrylamide]
100 to 1000	≤ 1000	1000 to 3000	≤ 1000	–	–	–	O=C(/C=C/c1ccc2c(c1)C(=O)CC1(CCCN(Cc3ccccc3)C1)O2)NO (single isomer, unassigned; (+)) [Example 18, (+)-(E)-3-[1'-Benzyl-4-oxo-spiro(chrormane-2,3'-piperidine)-6-yl]-N-hydroxy-acrylamide]
100 to 1000	≤ 1000	≤ 1000	≤ 1000	–	–	–	CN1CCC2(CC(=O)c3cc(/C=C/C(=O)NO)ccc3O2)C1 (racemic) [Example 7, (±)-(E)-3-[1'-Methyl-4-oxo-spiro(chromane-2,3'-pyrrolidine)-6-yl]-N-hydroxy-acrylamide]
≤ 100	≤ 1000	≤ 1000	≤ 1000	–	–	–	O=C(/C=C/c1ccc2c(c1)C(=O)CC1(CCN(CCc3ccccc3)C1)O2)NO (racemic) [Example 9, (±)-(E)-3-[1'-(2-Phenyl-ethyl)-4-oxo-spiro(chromane-2,3'-pyrrolidine)-6-yl]-N-hydroxy-acrylamide]
100 to 1000	1000 to 3000	≥ 3000	≥ 3000	–	–	–	O=C(/C=C/c1ccc2c(c1)C(=O)CC1(CCCNCC1)O2)NO (racemic) [Example 22, (±)-(E)-3-[4-Oxo-spiro(chromane-2,4'-azepane)-6-yl]-N-hydroxy-acrylamide]
≤ 100	–	–	–	≤ 1000	≤ 1000	≤ 1000	O=C(/C=C/c1ccc2c(c1)C(=O)CC1(CCN(Cc3ccccc3)C1)O2)NO (single isomer, unassigned; (+)) [Example 4, (+)-(E)-3-[1'-Benzyl-4-oxo-spiro(chromane-2,3'-pyrrolidine)-6-yl]-N-hydroxy-acrylamide]
100 to 1000	≥ 3000	≥ 3000	≥ 3000	–	–	–	CC(=O)N1CCCC2(CC(=O)c3cc(/C=C/C(=O)NO)ccc3O2)C1 (racemic) [Example 16, (±)-(E)-3-[1'-Acetyl-4-oxo-spiro(chromane-2,3'-piperidine)-6-yl]-N-hydroxy-acrylamide]
100 to 1000	≤ 1000	≤ 1000	≤ 1000	–	–	–	Cn1cc(CN2CCCC3(CC(=O)c4cc(/C=C/C(=O)NO)ccc4O3)C2)c2ccccc21 (racemic) [Example 45, (±)-(E)-3-[1'-(1-Methyl-1H-indol-3-ylmethyl)-4-oxo-spiro(chromane-2,3'-piperidine)-6-yl]-N-hydroxy-acrylamide]
≤ 100	≤ 1000	≤ 1000	≤ 1000	–	–	–	O=C(/C=C/c1ccc2c(c1)C(=O)CC1(CCCN(Cc3ccccc3)CC1)O2)NO (racemic) [Example 23, (±)-(E)-3-[1'-Benzyl-4-oxo-spiro(chromane-2,4'-azepane)-6-yl]-N-hydroxy-acrylamide]
≥ 1000	1000 to 3000	≥ 3000	1000 to 3000	–	–	–	CON=C1CC2(CCCN(Cc3ccc(F)cc3)C2)Oc2ccc(/C=C/C(=O)NO)cc21 (centres unmarked) [Example 53, (E)-3-(1'-(4-Fluorobenzyl)-4-(methoxyimino)spiro[chroman-2,3'-piperidine]-6-yl)-N-hydroxyacrylamide]
≤ 100	≤ 1000	≤ 1000	≤ 1000	–	–	–	O=C(/C=C/c1ccc2c(c1)C(=O)NC1(CCCN(Cc3ccccc3)C1)O2)NO (racemic) [Example 40, (±)-(E)-3-{1'-Benzyl-3,4-dihydro-4-oxo-spiro[2H-(1,3)-benzoxazine-2,3'-piperidin]-6-yl}-N-hydroxy-acrylamide]
100 to 1000	1000 to 3000	≥ 3000	1000 to 3000	–	–	–	CCOC(=O)N1CCCC2(CC1)CC(=O)c1cc(/C=C/C(=O)NO)ccc1O2 (racemic) [Example 27, (±)-(E)-3-[1'-Ethyloxycarbonyl-4-oxo-spiro(chromane-2,4'-azepane)-6-yl]-N-hydroxy-acrylamide]
100 to 1000	≥ 3000	≥ 3000	≥ 3000	–	–	–	CC(=O)N1CC2(CC(=O)c3cc(/C=C/C(=O)NO)ccc3O2)C1 [Example 36, (E)-3-[1'-Acetyl-4-oxo-spiro(chromane-2,3'-azetidine)-6-yl]-N-hydroxy-acrylamide]
100 to 1000	≤ 1000	1000 to 3000	≤ 1000	–	–	–	CN1CCCC2(C1)NC(=O)c1cc(/C=C/C(=O)NO)ccc1O2 (racemic) [Example 41, (±)-(E)-3-{1'-Methyl-3,4-dihydro-4-oxo-spiro[2H-(1,3)-benzoxazine-2,3'-piperidin]-6-yl}-N-hydroxy-acrylamide]
≥ 1000	≤ 1000	1000 to 3000	≤ 1000	–	–	–	O=C(/C=C/c1ccc2c(c1)C(=NOCc1ccccc1)CC1(CCCN(CCc3ccccc3)C1)O2)NO (centres unmarked) [Example 55, (E)-3-(4-(Benzyloxyimino)-1'-phenethylspiro[chroman-2,3'-piperidine]-6-yl)-N-hydroxyacrylamide]
≤ 100	≤ 1000	≤ 1000	≤ 1000	–	–	–	O=C(/C=C/c1ccc2c(c1)C(=O)CC1(CCCN(C3CCCC3)C1)O2)NO (racemic) [Example 50, (±)-(E)-3-[1'-Cyclopentyl-4-oxo-spiro(chromane-2,3'-piperidine)-6-yl]-N-hydroxy-acrylamide]
100 to 1000	≤ 1000	≤ 1000	≤ 1000	–	–	–	CN1CC2(CC(=O)c3cc(/C=C/C(=O)NO)ccc3O2)C1 [Example 34, (E)-3-[1'-Methyl-4-oxo-spiro(chromane-2,3'-azetidine)-6-yl]-N-hydroxy-acrylamide]
≤ 100	≤ 1000	≤ 1000	≤ 1000	–	–	–	O=C(/C=C/c1ccc2c(c1)C(=O)CC1(CN(Cc3ccccc3)C1)O2)NO [Example 31, (E)-3-[1'-Benzyl-4-oxo-spiro(chromane-2,3'-azetidine)-6-yl]-N-hydroxy-acrylamide]
100 to 1000	–	–	–	–	–	–	Cn1cc(CN2CCCC3(CC2)CC(=O)c2cc(/C=C/C(=O)NO)ccc2O3)c2ccccc21 (racemic) [Example 47, (±)-(E)-3-[1'-(1-Methyl-1H-indol-3-ylmethyl)-4-oxo-spiro(chromane-2,4'-azepane)-6-yl]-N-hydroxy-acrylamide]
100 to 1000	–	–	–	–	–	–	CCN1CCCC2(CC(=O)c3cc(/C=C/C(=O)NO)ccc3O2)C1 (racemic) [Example 48, (±)-(E)-3-[1'-Ethyl-4-oxo-spiro(chromane-2,3'-piperidine)-6-yl]-N-hydroxy-acrylamide]
